The results in this text go back to patent publication US7858349B2, “Anti-cancer compounds” (The Regents of the University of Colorado, priority 1999, dated 2010).

The structures appear in SMILES notation. Bounds are passed on as bounds.

The test system of one assay is SCLC strain SHP-77. In words: MTT assay for cell survival, SCLC SHP-77 in vitro. The note with it: ED50 for killing of SCLC strain SHP-77 in vitro, 4 days, 0 = no detectable activity, read-out: SCLC SHP-77 IC50. It is filed as cell-based, human. On the technique in general: Tetrazolium dyes change colour on reduction, which living cells bring about.
As for `CC1(C)CC(NC(=O)C(Cc2ccc(C#N)cc2)NC(=O)CCCc2c[nH]c3ccccc23)CC(C)(C)N1` (centres unmarked) [Analog M-1476, 3Ibu-PCNF-Atmp], the IC50 was above 60 µM.
Turning to `O=C(c1ccccc1)c1ccc2n1CCC2C(=O)N[C@@H](Cc1ccc(OCc2c(Cl)cccc2Cl)cc1)C(=O)N1CCN(C/C=C/c2ccccc2)CC1` (some centres unmarked) [Analog M-1666, Ktlc-OC2Y-tCip], the IC50 was above 60 µM.
On to `O=C(/C=C/c1c(F)c(F)c(F)c(F)c1F)N[C@@H](Cc1ccc(OCc2c(Cl)cccc2Cl)cc1)C(=O)NCCCn1ccnc1` [Analog M-1642, F5c-OC2Y-Apia], for which the concentration for half-maximal inhibition (IC50) stood at 42 µM.
With `CC(=O)Nc1nc(C)c(S(=O)(=O)N[C@@H](Cc2ccc(OCc3c(Cl)cccc3Cl)cc2)C(=O)NC2CC(C)(C)NC(C)(C)C2)s1` [Analog M-1628, Amts-OC2Y-Atmp], the IC50 came to 45 µM.
The same measure, in the same setting: under `CC1(C)CC(NC(=O)C(Cc2ccc(OCc3c(Cl)cccc3Cl)cc2)NC(=O)C=Cc2ccc(-c3ccccc3)cc2)CC(C)(C)N1` (centres unmarked) [Analog M-1776, Pcin-OC2Y-Atmp] stands 1.4 µM; under `O=C(C=Cc1c(F)c(F)c(F)c(F)c1F)NC(Cc1ccc(OCc2c(Cl)cccc2Cl)cc1)C(=O)N1CCN(Cc2c(F)c(F)c(F)c(F)c2F)CC1` (centres unmarked) [Analog M-1732, F5c-OC2Y-Pipz(F5b)], 24 µM.
Still for that read-out and setting: under `O=C(CC12CC3CC(CC(C3)C1)C2)N[C@@H](Cc1ccc(OCc2c(Cl)cccc2Cl)cc1)C(=O)N1CCN(c2ncccn2)CC1` [Analog M-1672, Aaa-OC2Y-Pmpz] stands above 50 µM; under `CC1(C)CC(NC(=O)C(Cc2ccc(C(F)(F)F)cc2)NC(=O)C(=Cc2ccccc2)c2ccccc2)CC(C)(C)N1` (centres unmarked) [Analog M-1790, Pcn-F3MF-Atmp], 2.2 µM; under `CC1(C)CC(NC(=O)C(Cc2ccc(-c3ccccc3)cc2)NC(=O)Cc2ccc(-c3ccccc3)cc2)CC(C)(C)N1` (centres unmarked) [Analog M-1796, Bipa-Bip-Atmp], 1.5 µM.
Still for that read-out and setting: under `CC1(C)CC(NC(=O)[C@@H](Cc2ccc(OCc3c(Cl)cccc3Cl)cc2)NC(=O)C(=Cc2ccccc2)c2ccccc2)CC(C)(C)N1` [Analog M-1682, Pcn-D-OC2Y-Atmp] stands 1.8 µM; under `CC1(C)CC(NC(=O)C2Cc3ccccc3CN2C(=O)C(=Cc2ccccc2)c2ccccc2)CC(C)(C)N1` (stereo not drawn) [Analog M-1770, Pcn-Tic-Atmp], 5.4 µM.
In the case of `C=CC(=O)NC(NC(=O)C=C)C(=O)NC(Cc1ccc(OCc2c(Cl)cccc2Cl)cc1)C(=O)NC1CC(C)(C)NC(C)(C)C1` (centres unmarked) [Analog M-1718, Baaa-OC2Y-Atmp], the half-inhibitory concentration (IC50) was above 60 µM.
Still for that read-out and setting: under `CC1(C)CC(NC(=O)[C@H](Cc2ccc(OCc3c(Cl)cccc3Cl)cc2)NC(=O)c2ccc(N)nc2)CC(C)(C)N1` [Analog M-1596, 6Ani-OC2Y-Atmp] stands above 60 µM.
On the same count and under the same terms, to `O=C(/C=C/c1c(F)c(F)c(F)c(F)c1F)N[C@@H](Cc1ccc(OCc2c(Cl)cccc2Cl)cc1)C(=O)N1CCN(C/C=C/c2ccccc2)CC1` [Analog M-1564, F5c-OC2Y-tCip] belongs 4 µM; to `CN1CCN(CCCNC(=O)C(Cc2ccc(OCc3c(Cl)cccc3Cl)cc2)NC(=O)c2ccc3c(c2)C(=O)c2ccccc2C3=O)CC1` (centres unmarked) [Analog M-1702, Aq2c-OC2Y-Amp], 3.6 µM.
The same measure, in the same setting: under `O=C(N[C@@H](Cc1ccc(OCc2c(Cl)cccc2Cl)cc1)C(=O)NC1CCN(Cc2ccccc2)CC1)C(=Cc1ccccc1)c1ccccc1` [Analog M-1660, Pcn-OC2Y-Abzp] stands 31 µM; under `CC1(C)CC(NC(=O)C(Cc2ccc(-c3ccccc3)cc2)NC(=O)C(=Cc2ccccc2)c2ccccc2)CC(C)(C)N1` (stereo not drawn) [Analog M-1764, Pcn-Bip-Atmp], 2.5 µM.
As to `O=C(CCCC[C@@H]1SC[C@@H]2NC(=O)N[C@@H]21)N[C@@H](Cc1ccc(OCc2c(Cl)cccc2Cl)cc1)C(=O)N1CCN(C/C=C/c2ccccc2)CC1` [Analog M-1656, Biot-OC2Y-tCip], the IC50 is 5.5 µM.
Same read-out and setting: to `CN1CCN(CCCNC(=O)[C@H](Cc2ccc(OCc3c(Cl)cccc3Cl)cc2)NC(=O)C23CC4CC(CC(C4)C2)C3)CC1` [Analog M-1676, Aca-OC2Y-Amp] belongs 6.2 µM; to `COc1ccc2c(c1)c(CC(=O)NC(C(=O)NC1CC(C)(C)NC(C)(C)C1)C1Cc3ccccc3C1)c(C)n2C(=O)c1ccc(Cl)cc1` (centres unmarked) [Analog M-1688, Indo-Igl-Atmp], 4 µM.
Still for that read-out and setting: under `CC1(C)CC(NC(=O)C(Cc2ccc(OCc3c(Cl)cccc3Cl)cc2)NC(=O)CCCCC2SCC3NC(=O)NC32)CC(C)(C)N1` (centres unmarked) [Analog M-1436, Biot-OC2Y-Atmp] stands above 60 µM; under `O=C(/C=C/c1c(F)c(F)c(F)c(F)c1F)N[C@@H](Cc1ccc(OCc2c(Cl)cccc2Cl)cc1)C(=O)N1CCCN(Cc2ccccc2)CC1` [Analog M-1606, F5c-OC2Y-Bhp], 17 µM; under `Cc1ccccc1C=CC(=O)NC(Cc1ccc(OCc2c(Cl)cccc2Cl)cc1)C(=O)NC1CC(C)(C)NC(C)(C)C1` (centres unmarked) [Analog M-1778, Mca-OC2Y-Atmp], 1.5 µM.
For the compound `CC1(C)CC(NC(=O)C(Cc2ccc(OCc3c(Cl)cccc3Cl)cc2)NC(=O)c2cccnc2Cl)CC(C)(C)N1` (centres unmarked) [Analog M-1714, 2Cln-OC2Y-Atmp], the half-maximal inhibitory concentration (IC50) came out at 4 µM.
On the same count and under the same terms, under `CC1(C)CC(NC(=O)C(Cc2ccc(OCc3c(Cl)cccc3Cl)cc2)NC(=O)Cc2cccc3ccccc23)CC(C)(C)N1` (centres unmarked) [Analog M-1708, 1Nala-OC2Y-Atmp] stands 7.2 µM; under `O=C(NC(Cc1ccc(OCc2c(Cl)cccc2Cl)cc1)C(=O)N1CCN(Cc2c(F)c(F)c(F)c(F)c2F)CC1)C(=Cc1ccccc1)c1ccccc1` (centres unmarked) [Analog M-1734, Pcn-OC2Y-Pipz(F5b)], 24 µM; under `CC1(C)CC(NC(=O)C(Cc2cc(I)c(OCc3c(Cl)cccc3Cl)c(I)c2)NC(=O)C(=Cc2ccccc2)c2ccccc2)CC(C)(C)N1` (centres unmarked) [Analog M-1760, Pcn-OCIY-Atmp], 2 µM.
Turning to `O=C(c1ccccc1)c1ccc2n1CCC2C(=O)N[C@@H](Cc1ccc(OCc2c(Cl)cccc2Cl)cc1)C(=O)NC1CCN(Cc2ccccc2)CC1` (some centres unmarked) [Analog M-1668, Ktlc-OC2Y-Abzp], the IC50 turned out to be 4.6 µM.
The same measure, in the same setting: under `CC1(C)CC(NC(=O)[C@H](Cc2ccc(C#N)cc2)NC(=O)c2cnccn2)CC(C)(C)N1` [Analog M-1524, 2Pyz-PCNF-Atmp] stands above 60 µM; under `CC1(C)CC(NC(=O)C(Cc2ccc(OCc3c(Cl)cccc3Cl)cc2)NC(=O)Cc2ccc(-c3ccccc3)cc2)CC(C)(C)N1` (centres unmarked) [Analog M-1782, Bipa-OC2Y-Atmp], 3 µM.

The assay is the same for the next values; noted with them: ED50 for killing of SCLC strain SHP-77 in vitro, 4 days, 0 = no detectable activity, read-out: SHP-77 In vitro IC50.
Consider `CC1(C)CC(NC(=O)C(Cc2ccc(OCc3c(Cl)cccc3Cl)cc2)NC(=O)C(F)(F)C(F)(F)C(F)(F)C(=O)O)CC(C)(C)N1` (centres unmarked) [M-1098 #2, CHFB-OC2Y-Atmp], for which the IC50 was 6.8 µM.
The same measure, in the same setting: under `CC1(C)CC(NC(=O)C(Cc2ccc(I)cc2)NC(=O)C=Cc2c(F)c(F)c(F)c(F)c2F)CC(C)(C)N1` (centres unmarked) [Analog M-1142, F5c-PIF-Atmp] stands 7.2 µM; under `O=C(C=Cc1cc(C(F)(F)F)cc(C(F)(F)F)c1)NC(Cc1ccc(I)cc1)C(=O)N1CCN(c2ccccn2)CC1` (centres unmarked) [Analog M-1252, Tf2c-PIF-Pypz], above 60 µM; under `O=C(C=Cc1c(F)c(F)c(F)c(F)c1F)NC(Cc1ccc2ccccc2c1)C(=O)N1CCC(N2CCCCC2)CC1` (centres unmarked) [Analog M-1250, F5c-Nal-Pipp], 7.6 µM.
For `O=C(C=Cc1c(F)c(F)c(F)c(F)c1F)NC(Cc1ccc(I)cc1)C(=O)N1CCN(c2ccccn2)CC1` (centres unmarked) [Analog M-1248, F5c-PIF-Pypz], the IC50 turned out to be 13 µM.

In general, IC50 refers to the midpoint of a concentration-inhibition curve.
